Assay results from patent US12649925B2, “Tissue-specific expression and hybrid plant production” (Dow AgroSciences LLC, priority 2013, dated 2026).

Columns and labels:
[1] = tested on: maize tissues; test: miRNA microarray expression profiling in maize tissues; parameters: species or system Zea mays
Procedure: miRNA microarray in various maize tissues: Tissues from maize inbred line B104 were used for miRNA profiling. Leaf tissues (at V2, V8 and flag leaf stages); immature tassel tissues (0.5 to 2.5 cm length); mature tassel tissues (tassel visible in the whorl); immature ear tissues (0.5 to 2 cm length); and mature ear tissues (visible ear shoot) were collected and immediately submerged in liquid nitrogen and stored at −80° C. Total RNA and low molecular weight RNAs were extracted using a mirVana™ miRNA isolation kit (INVITROGEN; Carlsbad, CA) following the manufacturer's instructions. RNA quality and quantity were assessed by optical density with a NANODROP 2000 spectrophotometer (THERMO SCIENTIFIC; Wilmington, DE) and by gel electrophoresis. miRNA microarray was performed by a commercial provider (LC SCIENCES; Houston, TX) using μParaflo® microfluidic oligonucleotide microarray technology. Zhou et al., (2012) Methods Mol. Biol. 822:153-82. All unique plant miRNA sequences available in MiRBase™ (mirbase.org) were printed on the arrays and used for miRNA profiling. […]

[2] = tested on: Maize Immature Embryos; test: Transient AAD1 expression in immature embryos after particle bombardment, ELISA; format: cell-based, Zea mays; details: 24 hours after particle bombardment
Excerpt: Zea mays embryos from inbred line B104 that express AAD1 mRNAs having miRNA target sites within the mRNA were produced. Control tissues having no miRNA target sites in the AAD1 mRNA, or having no AAD1 gene expression cassette, were also produced. Other control tissues were produced that had only a YFP gene expression cassette (and no AAD1 construct). Preparations of plant transformation DNA molecules constructed as described in EXAMPLE 2 were delivered into maize B104 immature embryos via particle bombardment transformation.
Plasmid DNAs of pDAB112375, pDAB112376, pDAB112377, pDAB113016, pDAB100286, pDAB112378 and pDAB112330 were isolated and purified from Escherichia coli by standard techniques, and diluted in TE buffer (10 mM Tris HCl plus 1 mM EDTA, pH 8) to 1.0 μg/μL.
Embryo isolation and culture: (Day 1) Surface-sterilized B104 immature ears (10 to 12 days post-pollination) were used for the isolation of embryos. Excised immature embryos from 3 to 4 ears were pooled into 2 mL microfuge tubes containing 2.0 mL liquid medium (LS basal medium (Linsmaier and Skoog, (1965) Physiologia Plantarum 18:100-27) containing CHU N6 vitamins (Chu et al. (1975) Scientia Sinica 18:659-68), 700 mg/L L-Proline, 68.5 gm/L sucrose, 36 gm/L D(+) glucose, and 1.5 mg/L 2,4-D). After embryo isolation, the liquid medium was removed and discarded. Embryos were removed and placed onto plates (40 embryos per plate) containing a semi-solid osmotic medium (MS basal medium (Murashige and Skoog, (1962) Physiologia Plantarum 15:473-497), 2 mg/L Glycine, 500 μg/L Thiamine, 500 μg/L Pyroxidine, 50 μg/L Nicotinic Acid., 120 gm/L sucrose, 100 mg/L myo-inositol, and 2.4 gm/L GELRITE). The embryos were arranged in a […] within the target area for particle bombardment. Three replicate plates were prepared for each construct to be tested. All plates were incubated at 28° C. under continuous low light (50 μEm^−2 sec^−1) for 24 hours prior to particle bombardment.
Coating gold particles with DNA: (Day 2) Tubes of frozen gold particles glycerol stock were thawed on ice for a few minutes, then vortexed for 2 minutes at high speed until a uniform gold suspension was produced. Gold suspension was pipetted into sterile microcentrifuge tubes (50 μL each), with an intermediate vortexing of the particle stock between each tube to maintain a uniform suspension. 2.5 μg each of appropriate plasmid DNAs were included. […]
ELISA quantification of AAD1 and PAT proteins: Enzyme Linked Immunosorbant Assays (ELISAs) were used to measure the production of AAD1 and PAT proteins in maize cells and stably-transformed tissues. […]

## miR529: Zea mays micro-RNA, SEQ ID NO:2 AGAAGAGAGAGAGUACAGCCU (expressed or natural sequence)
[1]; Flag Leaf
  relative expression levels: 30
[1]; Immature Ear
  relative expression levels: 90
[1]; Immature Tassel
  relative expression levels: 3174
[1]; Leaf V2
  relative expression levels: 199
[1]; Leaf V8
  relative expression levels: 34
[1]; Mature Ear
  relative expression levels: 1405
[1]; Mature Tassel
  relative expression levels: 1512
[1]; immature tassel vs leaves
  level higher in immature tassel tissues than in leaves: 16- to 100 fold

## miR319: micro-RNA, SEQ ID NO:3 UUGGACUGAAGGGUGCUCCC (expressed or natural sequence)
[1]; Flag Leaf
  relative expression levels: 16
[1]; Immature Ear
  relative expression levels: 3905
[1]; Immature Tassel
  relative expression levels: 2078
[1]; Leaf V2
  relative expression levels: 13
[1]; Leaf V8
  relative expression levels: 8
[1]; Mature Ear
  relative expression levels: 4616
[1]; Mature Tassel
  relative expression levels: 1566

## miR156: Zea mays micro-RNA, SEQ ID NO:1 UGACAGAAGAGAGUGAGCAC (expressed or natural sequence)
[1]; Flag Leaf
  relative expression levels: 1657
[1]; Immature Ear
  relative expression levels: 112
[1]; Immature Tassel
  relative expression levels: 78
[1]; Leaf V2
  relative expression levels: 4648
[1]; Leaf V8
  relative expression levels: 1337
[1]; Mature Ear
  relative expression levels: 1595
[1]; Mature Tassel
  relative expression levels: 2810

B1: pDAB112375: Transient transformation construct: ZmUbilv2/AAD1 v3/native WT miR529-156 site/ZmPer5 3′UTR (SEQ ID NO:6) (nucleic acid)
DNA: ATGGCTCATGCTGCCCTCAGCCCTCTCTCCCAACGCTTTGAGAGAATAGCTGTCCAGCCACTCACTGGTGTCCTTGGTGCTGAGATCACTGGAGTGGACTTGAGGGAACCACTTGATGACAGCACCTGGAATGAGATATTGGATGCCTTCCACACTTACCAAGTCATCTACTTTCCTGGCCAAGCAATCACCAATGAGCAGCACATTGCATTCTCAAGAAGGTTTGGACCAGTTGATCCAGTGCCTCTTCTCAAGAGCATTGAAGGCTATCCAGAGGTTCAGATGATCCGCAGAGAAGCCAATGAGTCTGGAAGGGTGATTGGTGATGACTGGCACACAGACTCCACTTTCCTTGATGCACCTCCAGCTGCTGTTGTGATGAGGGCCATAGATGTTCCTGAGCATGGCGGAGACACTGGGTTCCTTTCAATGTACACAGCTTGGGAGACCTTGTCTCCAACCATGCAAGCCACCATCGAAGGGCTCAACGTTGTGCACTCTGCCACACGTGTGTTCGGTTCCCTCTACCAAGCACAGAACCGTCGCTTCAGCAACACCTCAGTCAAGGTGATGGATGTTGATGCTGGTGACAGAGAGACAGTCCATCCCTTGGTTGTGACTCATCCTGGCTCTGGAAGGAAAGGCCTTTATGTGAATCAAGTCTACTGTCAGAGAATTGAGGGCATGACAGATGCAGAATCAAAGCCATTGCTTCAGTTCCTCTATGAGCATGCCACCAGATTTGACTTCACTTGCCGTGTGAGGTGGAAGAAAGACCAAGTCCTTGTCTGGGACAACTTGTGCACCATGCACCGTGCTGTTCCTGACTATGCTGGCAAGTTCAGATACTTGACTCGCACCACAGTTGGTGGAGTTAGGCCTGCCCGCTGAGTAGTTAGCTTAATCACCTAGAGCTCGACTCCAGCTGTGCTCTCTCTCTTCTGTCAACTCAGGTAACCTTTAAACTGAGGGCACTGAAGTCGCTTGATGTGCTGAATTGTTTGTGATGTTGGTGGCGTATTTTGTTTAAATAAGTAAGCATGGCTGTGATTTTATCATATGATCGATCTTTGGGGTTTTATTTAACACATTGTAAAATGTGTATCTATTAATAACTCAATGTATAAGATGTGTTCATTCTTCGGTTGCCATAGATCTGCTTATTTGACCTGTGATGTTTTGACTCCAAAAACCAAAATCACAACTCAATAAACTCATGGAATATGTCCACCTGTTTCTTGAAGAGTTCATCTACCATTCCAGTTGGCATTTATCAGTGTTGCAGCGGCGCTGTGCTTTGTAACATAACAATTGTTACGGCATATATCCAA
modifications: pDAB112375 expression cassette; (918)..(952) native tsh4 miR529-156 target site; (967)..(1331) ZmPer5 3′UTR
[2]; co-bombardment plasmid pDAB112330 (Cry34Ab)
  Mean AAD1 Amount: 58 ng/mL
[2]; co-bombardment plasmid pDAB112378 (artificial miRNA)
  Mean AAD1 Amount: 51 ng/mL
